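Test compounds were applied to cells in 96-well plates for 48 hours at 5 doses. Definition used: TGI = concentration required for complete inhibition of growth.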 Bounds are passed on as bounds.

One assay deals with NCI-H23 lung. Kind of assay: NCI-60 cell line screen, 48 h.
As for `C1CSCCSCCCS[C@@H]2CCCCC2SC1` (some centres undefined), the TGI is greater than 100 µM.

Consider `CCOC(=O)c1cn(CC)c(=O)n2c1nc1ccccc12`, for which the TGI was greater than 100 µM.

As for `NNc1nnc(CCCCCCCCc2nnc(NN)n2N)n1N`, the TGI is greater than 100 µM.

`COc1ccc(-c2oc3cc(-c4cc5oc(-c6ccc(OC)cc6)c(-c6ccc(OC)cc6)c5cc4OC)c(OC)cc3c2-c2ccc(OC)cc2)cc1` returned a TGI greater than 100 µM.

`O=C(NCCC1CNc2ccccc21)OCc1ccccc1` (centres undefined) displayed a TGI greater than 100 µM.

In turn, `c1cc(-c2ccc(-c3ccsc3)s2)cs1` came in with a TGI of 61 µM.

In turn, `CC(=O)c1ccc(N=NN2CCCC2)cc1` came in with a TGI greater than 100 µM.

Regarding `CSc1nncc(-c2cc3c(c(SC)n2)CCCC3)n1`, the TGI is greater than 100 µM.

Consider `O=C1c2ccccc2N2OC3(N4CCOCC4)CCCC3C12c1ccccc1` (centres undefined), for which the TGI is greater than 100 µM.

For the compound `Cn1c(CNc2ccc(-c3n[nH]c(=S)n3C)cc2)n[nH]c1=S`, the TGI was greater than 100 µM.

Take `COc1cc(C2c3cc4c(cc3OC(NN)C2C)OCO4)cc(OC)c1O` (centres undefined): the TGI is greater than 100 µM.

The compound `COC(=O)[C@@]12OC[C@]34C([C@@H](O)C1O)[C@@]1(C)CC(=O)C(OC(=O)CC(C)C(F)(F)F)=C(C)C1C[C@H]3OC(=O)[C@H](O)[C@H]42` (some centres undefined) had a TGI of 8.69 µM.

Compound `CC(N)(CC(O)(C(F)(F)Cl)C(F)(F)Cl)C(=O)O` (centres undefined) had a TGI greater than 10 µM.

Take `NC1=NC2(COC(c3ccccc3)(c3ccccc3)c3ccccc3)OC(COC(c3ccccc3)(c3ccccc3)c3ccccc3)C(O)C2O1` (centres undefined): the TGI was greater than 100 µM.

On to `CC1(C)O[C@@H]2[C@@H](COC(C)(C)O[C@H]2C2SCCCS2)O1`, for which the TGI was greater than 100 µM.

As for `O=C(O)CCCc1ccc2c(c1)CC1(C2)Cc2cc3c(cc2C1)CCCC3`, the TGI was 49.2 µM.

On to `CCOC(=O)C1(C/C=C\CBr)CCCC1=O` (centres undefined), for which the TGI came out at 56.7 µM.

With `COc1ccc(OC)c2sc(N3C(=O)/C(=C/c4cccc(Oc5ccccc5)c4)N=C3c3ccccc3)nc12`, the TGI was greater than 100 µM.

In the case of `Cc1cc(O)c(/C=N/C(N)=S)c(=O)o1`, the TGI was greater than 100 µM.

In turn, `Cc1[nH]n(-c2nc3c(c(=O)[nH]2)CCCC3)c(=O)c1CCO` returned a TGI greater than 100 µM.

On to `O=c1c(-c2ccccc2)nnc2n(Cc3ccccc3)c3ccccc3n12`, for which the TGI was greater than 100 µM.

As for `Cc1cc2nc3c(C#N)c(-c4ccccc4)/c(=C\Nc4ccc(F)cc4)c(=O)n3c2cc1C`, the TGI is greater than 100 µM.

`O=C(c1ccccc1)C1(Br)S(=O)(=O)OCCOS1(=O)=O`: the TGI was greater than 100 µM.

`C1CCC(N=C2N(C3CCCCC3)C(=NC3CCCCC3)N2C2CCCCC2)CC1` returned a TGI greater than 100 µM.

As for `O=S(=O)(/N=C(\NO)Nc1ccc(Cl)cc1)c1cc(C(F)(F)F)cc(C(F)(F)F)c1`, the TGI came out at 36.6 µM.

Another assay relates to RPMI-8226 leukemia. Kind of assay: NCI-60 cell line screen, 48 h.
`C1CSCCSCCCS[C@@H]2CCCCC2SC1` (some centres undefined) gave a TGI of 52.6 µM.

On to `CCOC(=O)c1cn(CC)c(=O)n2c1nc1ccccc12`, for which the TGI was found to be 75.1 µM.

In the case of `COc1ccc(-c2oc3cc(-c4cc5oc(-c6ccc(OC)cc6)c(-c6ccc(OC)cc6)c5cc4OC)c(OC)cc3c2-c2ccc(OC)cc2)cc1`, the TGI was greater than 100 µM.

In the case of `O=C(NCCC1CNc2ccccc21)OCc1ccccc1` (centres undefined), the TGI was greater than 100 µM.

The compound `c1cc(-c2ccc(-c3ccsc3)s2)cs1` returned a TGI greater than 100 µM.

Compound `CSc1nncc(-c2cc3c(c(SC)n2)CCCC3)n1` came in with a TGI greater than 100 µM.

On to `O=C1c2ccccc2N2OC3(N4CCOCC4)CCCC3C12c1ccccc1` (centres undefined), for which the TGI was greater than 100 µM.

In the case of `COc1cc(C2c3cc4c(cc3OC(NN)C2C)OCO4)cc(OC)c1O` (centres undefined), the TGI is 17.8 µM.

Turning to `COC(=O)[C@@]12OC[C@]34C([C@@H](O)C1O)[C@@]1(C)CC(=O)C(OC(=O)CC(C)C(F)(F)F)=C(C)C1C[C@H]3OC(=O)[C@H](O)[C@H]42` (some centres undefined), the TGI came to 5.56 µM.

The compound `NC1=NC2(COC(c3ccccc3)(c3ccccc3)c3ccccc3)OC(COC(c3ccccc3)(c3ccccc3)c3ccccc3)C(O)C2O1` (centres undefined) showed a TGI of 52.4 µM.

Regarding `CC1(C)O[C@@H]2[C@@H](COC(C)(C)O[C@H]2C2SCCCS2)O1`, the TGI was greater than 100 µM.

`O=C(O)CCCc1ccc2c(c1)CC1(C2)Cc2cc3c(cc2C1)CCCC3`: the TGI was determined as 53.2 µM.

Turning to `COc1ccc(OC)c2sc(N3C(=O)/C(=C/c4cccc(Oc5ccccc5)c4)N=C3c3ccccc3)nc12`, the TGI is greater than 100 µM.

Consider `Cc1cc2nc3c(C#N)c(-c4ccccc4)/c(=C\Nc4ccc(F)cc4)c(=O)n3c2cc1C`, for which the TGI is greater than 100 µM.

`O=C(c1ccccc1)C1(Br)S(=O)(=O)OCCOS1(=O)=O` yielded a TGI greater than 100 µM.

With `C1CCC(N=C2N(C3CCCCC3)C(=NC3CCCCC3)N2C2CCCCC2)CC1`, the TGI was greater than 100 µM.

A further assay concerns SF-268 CNS. Kind of assay: NCI-60 cell line screen, 48 h.
As for `C1CSCCSCCCS[C@@H]2CCCCC2SC1` (some centres undefined), the TGI is greater than 100 µM.

`NNc1nnc(CCCCCCCCc2nnc(NN)n2N)n1N` had a TGI greater than 100 µM.

Turning to `COc1ccc(-c2oc3cc(-c4cc5oc(-c6ccc(OC)cc6)c(-c6ccc(OC)cc6)c5cc4OC)c(OC)cc3c2-c2ccc(OC)cc2)cc1`, the TGI is greater than 100 µM.

For `O=C(NCCC1CNc2ccccc21)OCc1ccccc1` (centres undefined), the TGI is greater than 100 µM.

The compound `CCN1/C(=C/C#C/C(C)=C\c2sc3ccc(Cl)cc3[n+]2CC)Sc2ccc(Cl)cc21` showed a TGI of 21.4 µM.

`c1cc(-c2ccc(-c3ccsc3)s2)cs1` yielded a TGI greater than 100 µM.

As for `CC(=O)c1ccc(N=NN2CCCC2)cc1`, the TGI is greater than 100 µM.

Compound `CSc1nncc(-c2cc3c(c(SC)n2)CCCC3)n1` had a TGI greater than 100 µM.

The compound `O=C1c2ccccc2N2OC3(N4CCOCC4)CCCC3C12c1ccccc1` (centres undefined) yielded a TGI greater than 100 µM.

As to `Cn1c(CNc2ccc(-c3n[nH]c(=S)n3C)cc2)n[nH]c1=S`, the TGI was greater than 100 µM.

Compound `COc1cc(C2c3cc4c(cc3OC(NN)C2C)OCO4)cc(OC)c1O` (centres undefined) had a TGI greater than 100 µM.

`COC(=O)[C@@]12OC[C@]34C([C@@H](O)C1O)[C@@]1(C)CC(=O)C(OC(=O)CC(C)C(F)(F)F)=C(C)C1C[C@H]3OC(=O)[C@H](O)[C@H]42` (some centres undefined) registered a TGI of 56.8 µM.

`CC(N)(CC(O)(C(F)(F)Cl)C(F)(F)Cl)C(=O)O` (centres undefined) gave a TGI greater than 10 µM.

Consider `CC1(C)O[C@@H]2[C@@H](COC(C)(C)O[C@H]2C2SCCCS2)O1`, for which the TGI is greater than 100 µM.

For `CCOC(=O)C1(C/C=C\CBr)CCCC1=O` (centres undefined), the TGI is greater than 100 µM.

`COc1ccc(OC)c2sc(N3C(=O)/C(=C/c4cccc(Oc5ccccc5)c4)N=C3c3ccccc3)nc12` gave a TGI greater than 100 µM.

`Cc1cc(O)c(/C=N/C(N)=S)c(=O)o1` displayed a TGI greater than 100 µM.

Consider `Cc1[nH]n(-c2nc3c(c(=O)[nH]2)CCCC3)c(=O)c1CCO`, for which the TGI was greater than 100 µM.

As to `O=c1c(-c2ccccc2)nnc2n(Cc3ccccc3)c3ccccc3n12`, the TGI was greater than 100 µM.

Consider `Cc1cc2nc3c(C#N)c(-c4ccccc4)/c(=C\Nc4ccc(F)cc4)c(=O)n3c2cc1C`, for which the TGI was greater than 100 µM.

Compound `O=C(c1ccccc1)C1(Br)S(=O)(=O)OCCOS1(=O)=O` registered a TGI greater than 100 µM.

`C1CCC(N=C2N(C3CCCCC3)C(=NC3CCCCC3)N2C2CCCCC2)CC1`: the TGI is greater than 100 µM.

For the compound `O=S(=O)(/N=C(\NO)Nc1ccc(Cl)cc1)c1cc(C(F)(F)F)cc(C(F)(F)F)c1`, the TGI was 50.7 µM.

The values are drawn from PubChem BioAssay (NCI).
